In patent EP4556003A1, “ANTI-OBESITY AND ANTI-DIABETIC ACTIVITY OF BROMINATED DITERPENES FROM RED ALGAE OF THE GENUS LAURENCIA AND APPLICATIONS THEREOF” (priority 2023, dated 2025):

Experiment: High fat diet-induced obesity mouse model (weight gain, abdominal fat, spleen weight, overall toxicity)
Type: in vivo
Settings: high fat diet mice
Protocol: All procedures were conducted in compliance with protocols approved by the Animal Care Committee of the University of Crete, School of Medicine (Facility number EL91-BIOexp-06), in conjunction with the Veterinary Department of the Region of Crete, Heraklion, Crete, Greece. C57BL/6 adult male mice were maintained in a 12 h day/night cycle and 21-23 °C conditions. Mice were provided with water and either normal fat diet, or high fat diet (60% energy from fat) ad libitum. All mice were weighed every 48 h.
Neorogioldiol was first dissolved in 90% carbowaxTM 400, 10% (v/v) absolute ethanol solution and then diluted 1:10 in water for injection. A dose of 0.25 mg neorogioldiol in a total volume of 200 µl was administered intraperitoneally every 48 h in mice in high fat + neorogioldiol group starting from day 1. 4-5 mice were used per group and each experiment was performed twice.
Abdominal fat lobes were weighed, washed in PBS, minced and dissolved with collagenase. They were incubated in 1.5mg/ml collagenase in 1% PBS-BSA, for 30 min at 37 °C. Next, homogenate was centrifuged at 800 rpm for 5 min at room temperature. The upper fatty phase, which contains the adipocytes, was collected and resuspended in TRI Reagent® and RNA isolation was carried out according to the manufacturer's instructions. The cell pellet, which is the stromal vascular fraction, was washed once with PBS and resuspended in TRI Reagent® for RNA isolation.

[1] = intraperitoneal 0.25 mg/mouse every 48 h for 35 days, vs high fat diet without neorogioldiol

neorogioldiol
toxicity in vivo (overall) (0.25 mg/mouse i.p. every 48 h for 35 days): did not exhibit any toxicity in vivo | abdominal fat mass [1]: reduced abdominal fat mass | weight gain [1]: suppressed weight gain
